From article PMC8450354, “Codon Optimization of Insect Odorant Receptor Genes May Increase Their Stable Expression for Functional Characterization in HEK293 Cells” (Frontiers in Cellular Neuroscience, 2021)

How the values were obtained:
Assay in all cases: calcium fluorescence (Fluo-4AM) assay, inducible stable HEK293 cells
Assay type in all cases: cell-based
[1] = target: T1, ItypOR25 (Ips typographus, UniProt A0A8F3ERC7)
T1 construct: full-length, N-terminal V5 tag, codon-optimized gene; with ItypOrco
T1 sequence (A0A8F3ERC7 1-394): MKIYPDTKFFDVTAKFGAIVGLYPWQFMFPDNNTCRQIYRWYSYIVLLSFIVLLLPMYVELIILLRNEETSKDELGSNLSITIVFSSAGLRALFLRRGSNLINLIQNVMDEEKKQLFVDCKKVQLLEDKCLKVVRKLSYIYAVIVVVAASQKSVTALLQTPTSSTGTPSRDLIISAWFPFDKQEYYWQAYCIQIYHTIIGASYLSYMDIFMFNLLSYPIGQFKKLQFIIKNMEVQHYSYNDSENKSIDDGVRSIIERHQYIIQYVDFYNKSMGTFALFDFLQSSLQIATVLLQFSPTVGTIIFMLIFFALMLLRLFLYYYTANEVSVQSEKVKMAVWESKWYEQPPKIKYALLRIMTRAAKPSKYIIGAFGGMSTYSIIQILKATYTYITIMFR
T1 sequence (A0A7L8XYY7 1-480 partner): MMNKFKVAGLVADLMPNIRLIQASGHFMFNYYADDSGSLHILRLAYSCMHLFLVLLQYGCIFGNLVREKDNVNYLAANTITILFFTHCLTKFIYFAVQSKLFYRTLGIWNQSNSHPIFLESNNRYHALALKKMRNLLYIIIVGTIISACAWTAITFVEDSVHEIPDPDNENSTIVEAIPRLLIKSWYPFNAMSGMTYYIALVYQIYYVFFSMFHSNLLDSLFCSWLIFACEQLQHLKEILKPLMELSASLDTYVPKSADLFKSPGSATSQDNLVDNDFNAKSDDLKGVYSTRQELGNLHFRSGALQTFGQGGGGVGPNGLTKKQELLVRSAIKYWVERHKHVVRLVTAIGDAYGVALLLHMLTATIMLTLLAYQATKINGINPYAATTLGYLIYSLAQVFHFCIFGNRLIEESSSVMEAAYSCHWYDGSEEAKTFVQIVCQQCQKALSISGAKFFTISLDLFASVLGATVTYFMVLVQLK

[2] = target: T2, ItypOR49 (Ips typographus, UniProt A0A7L8XYT4)
T2 construct: full-length, N-terminal V5 tag, codon-optimized gene; with ItypOrco

[3] = target: T3, ItypOrco (Ips typographus, UniProt A0A7L8XYY7)
T3 construct: full-length, N-terminal Myc tag, codon-optimized gene, expressed without an OR

T2 sequence (A0A7L8XYT4 entry or part of it, one chain of several): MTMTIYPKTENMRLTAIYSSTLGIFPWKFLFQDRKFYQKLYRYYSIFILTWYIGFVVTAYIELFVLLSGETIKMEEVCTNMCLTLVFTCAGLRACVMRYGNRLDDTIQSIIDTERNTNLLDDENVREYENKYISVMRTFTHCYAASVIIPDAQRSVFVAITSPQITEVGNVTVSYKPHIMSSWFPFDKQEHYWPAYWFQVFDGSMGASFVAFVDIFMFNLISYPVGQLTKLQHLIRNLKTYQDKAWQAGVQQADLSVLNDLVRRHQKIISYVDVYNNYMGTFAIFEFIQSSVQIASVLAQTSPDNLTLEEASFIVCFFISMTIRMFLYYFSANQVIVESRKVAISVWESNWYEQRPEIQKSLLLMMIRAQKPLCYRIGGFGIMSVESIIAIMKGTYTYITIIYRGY

CC1=CC[C@@H]2[C@H](C1)C2(C)C [(+)-3-carene]
EC50 [1]: ~24.5 µM

C=CC(=C)C[C@@H](O)C=C(C)C [(R)-(−)-ipsdienol]
EC50 [2]: 7.1 µM

CCc1ccc(NC(=O)CSc2nnc(-c3cccnc3)n2CC)cc1 [VUAA1]
EC50 [3]: 21.1 µM
